Measurements reported in US12139487B2, “Compounds and uses thereof” (Foghorn Therapeutics Inc., priority 2022, dated 2024).

Tests used:
[1] = molecular target: T1, BRG-1 (Homo sapiens, UniProt P51532); test: ATPase catalytic activity assay (ADP-Glo), BRG-1; assay type: biochemical; settings: Table 10, read-out: BRG1 IC50
T1 construct: made in house; host or cells: High Five insect cells
Protocol: (§1) The ATPase catalytic activity of BRM or BRG-1 was measured by an in vitro biochemical assay using ADP-Glo™ (Promega, V9102). The ADP-Glo™ kinase assay is performed in two steps once the reaction is complete. The first step is to deplete any unconsumed ATP in the reaction. The second step is to convert the reaction product ADP to ATP, which will be utilized by the luciferase to generate luminesce and be detected by a luminescence reader, such as Envision.
Then, following addition of 5 μL of ADP-Glo™ Reagent provided in the kit, the reaction incubates at room temperature for 40 minutes. Then, 10 μL of Kinase Detection Reagent provided in the kit is added to convert ADP to ATP, and the reaction incubates at room temperature for 60 minutes. Finally, luminescence measurement is collected with a plate-reading luminometer, such as Envision.

[2] = molecular target: T2, BRM (Homo sapiens, UniProt P51531); test: ATPase catalytic activity assay (ADP-Glo), BRM; assay type: biochemical; settings: Table 10; for Ratio (BRG1 IC50 (μM) divided by BRM IC50 (μM)): ATPase assay, selectivity BRG1/BRM; for IC50: ATPase catalytic activity assay (ADP-Glo)
T2 construct: made in house; host or cells: High Five insect cells
T2 sequence (P51531 whole entry): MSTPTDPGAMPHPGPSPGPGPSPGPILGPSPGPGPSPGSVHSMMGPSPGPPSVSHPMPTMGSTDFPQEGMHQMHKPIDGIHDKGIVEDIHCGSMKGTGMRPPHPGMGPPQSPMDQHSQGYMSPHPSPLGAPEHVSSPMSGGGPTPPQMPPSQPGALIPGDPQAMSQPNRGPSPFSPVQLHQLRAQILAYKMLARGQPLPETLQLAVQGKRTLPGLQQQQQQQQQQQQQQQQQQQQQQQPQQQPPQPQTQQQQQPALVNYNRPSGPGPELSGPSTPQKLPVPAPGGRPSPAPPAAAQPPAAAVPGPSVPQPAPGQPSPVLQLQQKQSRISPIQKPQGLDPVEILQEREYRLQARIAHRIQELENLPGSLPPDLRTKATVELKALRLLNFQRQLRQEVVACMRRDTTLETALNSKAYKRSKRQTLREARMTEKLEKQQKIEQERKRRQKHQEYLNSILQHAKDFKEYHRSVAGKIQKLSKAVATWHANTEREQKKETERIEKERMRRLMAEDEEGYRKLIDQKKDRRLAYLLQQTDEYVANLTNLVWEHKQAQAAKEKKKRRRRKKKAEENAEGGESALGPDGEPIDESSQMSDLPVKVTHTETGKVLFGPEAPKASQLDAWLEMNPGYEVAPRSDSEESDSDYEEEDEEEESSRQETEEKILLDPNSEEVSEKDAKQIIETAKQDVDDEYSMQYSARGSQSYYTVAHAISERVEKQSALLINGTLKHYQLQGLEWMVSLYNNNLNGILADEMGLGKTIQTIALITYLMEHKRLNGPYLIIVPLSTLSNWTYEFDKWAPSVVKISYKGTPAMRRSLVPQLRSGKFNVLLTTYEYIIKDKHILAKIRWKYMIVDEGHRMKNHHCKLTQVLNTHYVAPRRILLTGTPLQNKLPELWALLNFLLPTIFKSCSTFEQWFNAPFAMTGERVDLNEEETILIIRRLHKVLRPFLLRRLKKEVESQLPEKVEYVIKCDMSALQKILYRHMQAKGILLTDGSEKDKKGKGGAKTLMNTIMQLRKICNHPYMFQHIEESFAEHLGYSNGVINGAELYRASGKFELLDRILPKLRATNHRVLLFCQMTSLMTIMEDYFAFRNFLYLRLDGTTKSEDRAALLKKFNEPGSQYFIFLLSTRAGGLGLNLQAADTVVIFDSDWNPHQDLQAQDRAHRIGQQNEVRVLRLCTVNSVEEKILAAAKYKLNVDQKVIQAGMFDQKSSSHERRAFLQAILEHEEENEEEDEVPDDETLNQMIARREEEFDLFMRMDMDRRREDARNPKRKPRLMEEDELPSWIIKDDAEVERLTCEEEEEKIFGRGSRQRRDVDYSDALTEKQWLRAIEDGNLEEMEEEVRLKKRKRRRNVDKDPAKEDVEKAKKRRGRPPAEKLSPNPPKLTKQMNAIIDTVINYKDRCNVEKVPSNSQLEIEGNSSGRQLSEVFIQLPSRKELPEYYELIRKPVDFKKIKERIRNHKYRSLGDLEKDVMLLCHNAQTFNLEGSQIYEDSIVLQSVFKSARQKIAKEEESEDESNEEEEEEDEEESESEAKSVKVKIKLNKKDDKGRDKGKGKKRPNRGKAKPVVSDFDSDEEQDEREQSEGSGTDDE
Protocol: as §1
The assay reaction mixture […] contains 30 nM of BRM or BRG-1, 20 nM salmon sperm DNA (from Invitrogen, UltraPure™ Salmon Sperm DNA Solution, cat #15632011), and 400 μM of ATP in the ATPase assay buffer, which comprises of 20 mM Tris, pH 8, 20 mM MgCl2, 50 mM NaCl, 0.1% Tween-20, and 1 mM fresh DTT (Pierce™ DTT (Dithiothreitol), cat #20290). The reaction is initiated by the addition of the 2.5 μL ATPase solution to 2.5 μL ATP/DNA solution on low volume white Proxiplate-384 plus plate (PerkinElmer, cat #6008280) and incubates at room temperature for 1 hour. Then, following addition of 5 μL of ADP-Glo™ Reagent provided in the kit, the reaction incubates at room temperature for 40 minutes. Then, 10 μL of Kinase Detection Reagent provided in the kit is added to convert ADP to ATP, and the reaction incubates at room temperature for 60 minutes. Finally, luminescence measurement is collected with a plate-reading luminometer, such as Envision.

[3] = tested on: BRM-dependent transcription (BRG1 mutant lung cancer cell line A549); test: BRM-dependent transcription, MMTV luciferase reporter in BRG1 mutant A549 cells; assay type: cell-based; settings: Table 11; for IC50: Homo sapiens, A549, 6 h, A549-MMTV luciferase reporter, dexamethasone induced, 6 hours; for Ratio (MDA-MMTV IC50 (μM) divided by A549-MMTV IC50 (μM)): MMTV luciferase reporter cell lines, selectivity BRG1/BRM
How it was run: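 A549 (BRG1-mutant) cells engineered with a BRM-dependent MMTV luciferase reporter; transcription induced with dexamethasone in presence of compound at various concentrations. Luminescence read 6 h after stimulation.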

T1 sequence (P51532 whole entry): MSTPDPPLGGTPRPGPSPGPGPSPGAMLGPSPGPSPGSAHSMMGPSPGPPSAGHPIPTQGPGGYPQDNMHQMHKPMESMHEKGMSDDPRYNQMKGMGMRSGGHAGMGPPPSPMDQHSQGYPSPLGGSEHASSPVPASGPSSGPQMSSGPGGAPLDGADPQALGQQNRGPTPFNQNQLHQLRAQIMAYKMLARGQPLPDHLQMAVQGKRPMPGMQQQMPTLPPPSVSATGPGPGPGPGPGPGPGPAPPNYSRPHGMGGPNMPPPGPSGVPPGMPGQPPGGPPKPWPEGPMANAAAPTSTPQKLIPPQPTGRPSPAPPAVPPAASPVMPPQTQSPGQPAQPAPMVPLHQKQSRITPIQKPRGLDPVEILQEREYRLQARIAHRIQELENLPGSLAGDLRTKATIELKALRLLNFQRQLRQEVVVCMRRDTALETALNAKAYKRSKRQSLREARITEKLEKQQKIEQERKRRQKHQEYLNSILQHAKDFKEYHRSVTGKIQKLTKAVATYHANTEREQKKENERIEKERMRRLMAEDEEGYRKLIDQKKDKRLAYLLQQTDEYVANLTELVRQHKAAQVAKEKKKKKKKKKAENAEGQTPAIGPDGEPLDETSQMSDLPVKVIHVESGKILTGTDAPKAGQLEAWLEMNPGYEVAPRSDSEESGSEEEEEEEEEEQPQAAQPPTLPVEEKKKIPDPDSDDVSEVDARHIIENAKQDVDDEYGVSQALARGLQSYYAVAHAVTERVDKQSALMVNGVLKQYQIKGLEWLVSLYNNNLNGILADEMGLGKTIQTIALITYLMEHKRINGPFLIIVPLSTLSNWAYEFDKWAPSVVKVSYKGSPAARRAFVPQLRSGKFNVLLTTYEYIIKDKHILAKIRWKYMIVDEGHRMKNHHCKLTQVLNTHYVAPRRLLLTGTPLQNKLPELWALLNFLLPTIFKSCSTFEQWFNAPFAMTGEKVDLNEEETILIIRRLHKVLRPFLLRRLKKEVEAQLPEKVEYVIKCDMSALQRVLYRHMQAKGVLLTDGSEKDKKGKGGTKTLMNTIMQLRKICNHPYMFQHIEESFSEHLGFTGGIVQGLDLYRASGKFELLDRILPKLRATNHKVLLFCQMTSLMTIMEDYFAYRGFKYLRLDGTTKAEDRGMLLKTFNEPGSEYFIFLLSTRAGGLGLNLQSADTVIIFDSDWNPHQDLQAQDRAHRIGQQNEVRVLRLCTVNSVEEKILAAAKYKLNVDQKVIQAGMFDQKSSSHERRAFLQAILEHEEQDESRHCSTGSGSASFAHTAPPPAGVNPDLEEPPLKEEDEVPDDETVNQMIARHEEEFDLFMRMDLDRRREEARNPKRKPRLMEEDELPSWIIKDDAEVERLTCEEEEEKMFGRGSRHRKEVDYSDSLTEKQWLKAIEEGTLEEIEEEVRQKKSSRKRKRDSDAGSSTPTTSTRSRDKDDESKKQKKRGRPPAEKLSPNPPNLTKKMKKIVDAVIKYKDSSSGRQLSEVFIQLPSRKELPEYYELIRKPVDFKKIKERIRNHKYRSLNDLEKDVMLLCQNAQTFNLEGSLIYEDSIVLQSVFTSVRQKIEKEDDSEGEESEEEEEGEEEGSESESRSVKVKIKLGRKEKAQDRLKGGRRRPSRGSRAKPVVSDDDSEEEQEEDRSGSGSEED

| SMILES | IC50 [1] | other results |
| --- | --- | --- |
| O=C(NCc1cc2nc(N3CCOc4ccc(C(F)F)nc43)ccc2cn1)c1cc(F)c2c(c1)S(=O)(=O)[C@@H](F)COC2 [Compound 58] | 64.4 nM | Ratio (BRG1 IC50 (μM) divided by BRM IC50 (μM)) [2]: 23.60; IC50 [2]: 2.5 nM |
| [2H]C1([2H])Oc2c(F)cc(C(=O)NCc3cc4nc(N5CCOc6cc(N7CC(F)C7)cnc65)ccc4cn3)cc2S(=O)(=O)[C@@]([2H])(F)C1([2H])[2H] [Compound 171] | 89.1 nM | Ratio (BRG1 IC50 (μM) divided by BRM IC50 (μM)) [2]: 16.27; IC50 [2]: 5.5 nM |
| O=C(NCc1cc2nc(N3CCOc4cc(N5CCC5)cnc43)ccc2cn1)c1cc(F)c2c(c1)S(=O)(=O)[C@@H](F)COC2 [Compound 48] | 34.1 nM | Ratio (BRG1 IC50 (μM) divided by BRM IC50 (μM)) [2]: 13.42; IC50 [2]: 2.3 nM |
| COCC1CN(c2ccc3c(c2)N(c2ccc4cnc(CNC(=O)c5cc(F)c6c(c5)S(=O)(=O)[C@@H](F)CCO6)cc4n2)CCO3)C1 [Compound 219] | 167 nM |  |
| O=C(NCc1cc2nc(N3CCCc4cc(N5C[C@@H](F)[C@H](F)C5)cnc43)ccc2cn1)c1cc(F)c2c(c1)S(=O)(=O)[C@@H](F)CCO2 [Compound 168] | 79.5 nM | Ratio (BRG1 IC50 (μM) divided by BRM IC50 (μM)) [2]: 15.00; IC50 [2]: 5.3 nM |
| C[C@H]1[C@@H](F)CN1c1cnc2c(c1)OCCN2c1ccc2cnc(CNC(=O)c3cc(F)c4c(c3)S(=O)(=O)[C@@H](F)CCO4)cc2n1 [Compound 69] | 37.5 nM | Ratio (BRG1 IC50 (μM) divided by BRM IC50 (μM)) [2]: 13.99; IC50 [2]: 2.7 nM |
| COCC1(c2cccc(-c3ccc4cnc(CNC(=O)c5cc(F)c6c(c5)S(=O)(=O)[C@@H](F)CCO6)cc4n3)n2)CC1 [Compound 275] | 128 nM | Ratio (BRG1 IC50 (μM) divided by BRM IC50 (μM)) [2]: 14.02; IC50 [2]: 9.1 nM |
| CO[C@H]1C[C@@H]1N(C)c1cccc(-c2ccc3cnc(CNC(=O)c4cc(F)c5c(c4)S(=O)(=O)[C@@H](F)COC5)cc3n2)n1 [Compound 211] | 61.6 nM |  |
| O=C(NCc1cc2nc(N3CCOc4cc(N5CC(F)C5)cnc43)ccc2cn1)c1ccc2c(c1)S(=O)(=O)[C@@H](F)CCOC2 [Compound 7] | 17.9 nM |  |
| C[C@H]1CCN1c1cnc2c(c1)OCCN2c1ccc2cnc(CNC(=O)c3cc(F)c4c(c3)S(=O)(=O)[C@@H](F)CCO4)cc2n1 [Compound 233] | 76.2 nM |  |
| COc1cc(C(=O)NCc2cc3nc(-c4ccc(OC(F)F)c(C5CC5)n4)ccc3cn2)cc2c1COC[C@H](F)S2(=O)=O [Compound 329] | 1350 nM |  |
| O=C(NCc1cc2nc(N3CCOc4cc(C5CC5)cnc43)ccc2cn1)c1cc(F)c2c(c1)S(=O)(=O)[C@@H](F)CCO2 [Compound 241] | 82.4 nM |  |
| COc1nc([C@@H](C)F)ccc1-c1ccc2cnc(CNC(=O)c3cc(Cl)c4c(c3)S(=O)(=O)[C@@H](F)COC4)cc2n1 [Compound 242] | 246 nM |  |
| C[C@@H]1OC[C@H](F)S(=O)(=O)c2cc(C(=O)NCc3cc4nc(N5CCOc6cc(C7CC7)cnc65)ccc4cn3)ccc21 [Compound 49] | 44 nM |  |
| C[C@@H]1CCN1c1cc2c(cn1)N(c1ccc3cnc(CNC(=O)c4cc(F)c5c(c4)S(=O)(=O)[C@@H](F)COC5)cc3n1)CCO2 [Compound 214] | 72 nM |  |
| O=C(NCc1cc2nc(N3CCOc4ccc(C(F)F)nc43)ccc2cn1)c1cc(Cl)c2c(c1)S(=O)(=O)[C@@H](F)COC2 [Compound 208] | 239 nM |  |
| O=C(NCc1cc2nc(N3CCOc4cc(OCC(F)F)cnc43)ccc2cn1)c1cc(F)c2c(c1)S(=O)(=O)[C@@H](F)COC2 [Compound 213] | 90.3 nM |  |
| CCO[C@@H]1CCN(c2cccc(-c3ccc4cnc(CNC(=O)c5cc(F)c6c(c5)S(=O)(=O)[C@@H](F)CCO6)cc4n3)n2)C1 [Compound 92] | 39 nM |  |
| O=C(NCc1cc2nc(N3CCOc4ccc(OC(F)F)nc43)ccc2cn1)c1cc(F)c2c(c1)S(=O)(=O)[C@@H](F)CCO2 [Compound 126] | 88.9 nM |  |
| O=C(NCc1cc2nc(-c3cccc([C@H]4CC4(F)F)n3)ccc2cn1)c1cc(F)c2c(c1)S(=O)(=O)[C@@H](F)COC2 [Compound 128] | 123 nM |  |
| COc1nc(C(F)(F)F)ccc1-c1ccc2cnc(CNC(=O)c3cc(F)c4c(c3)S(=O)(=O)[C@@H](F)COC4)cc2n1 [Compound 127] | 72.5 nM |  |

| SMILES | IC50 [1] | other results |
| --- | --- | --- |
| C[C@@H]1C[C@H](C)N1c1cnc2c(c1)OCCN2c1ccc2cnc(CNC(=O)c3cc(F)c4c(c3)S(=O)(=O)[C@@H](F)CCO4)cc2n1 [Compound 218] | 90.6 nM |  |
| CCOc1cccc(-c2ccc3cnc(CNC(=O)c4cc(F)c5c(c4)S(=O)(=O)[C@@H](F)CCO5)cc3n2)n1 [Compound 330] | 351 nM |  |
| Cc1cnc2c(c1)OCCN2c1ccc2cnc(CNC(=O)c3cc(F)c4c(c3)S(=O)(=O)[C@@H](F)COC4)cc2n1 [Compound 6, (R)-2,6-difluoro-N-((2-(7-methyl-2,3-dihydro-4H-pyrido[3,2-b][1,4]oxazin-4-yl)-1,6-naphthyridin-7-yl)methyl)-2,3-dihydro-5H-benzo[e][1,4]oxathiepine-8-carboxamide 1,1-dioxide] | 21.3 nM |  |
| CCOc1ccnc2c1OCCN2c1ccc2cnc(CNC(=O)c3cc(Cl)c4c(c3)S(=O)(=O)[C@@H](F)CCO4)cc2n1 [Compound 94] | 58.6 nM |  |
| O=C(NCc1cc2nc(N3CCOc4ccc([C@@H]5C[C@@H]5F)nc43)ccc2cn1)c1cc(F)c2c(c1)S(=O)(=O)[C@@H](F)COC2 [Compound 209] | 103 nM |  |
| O=C(NCc1cc2nc(N3CCOc4c(N5CC6(CC6)C5)ccnc43)ccc2cn1)c1cc(F)c2c(c1)S(=O)(=O)[C@@H](F)COC2 [Compound 212] | 136 nM |  |
| O=C(NCc1cc2nc(N3CCOc4cc(N5C[C@@H](F)[C@H](F)C5)cnc43)ccc2cn1)c1cc(Cl)c2c(c1)S(=O)(=O)[C@@H](F)CCO2 [Compound 258, (R)-9-chloro-N-((2-(7-((3R,4R)-3,4-difluoropyrrolidin-1-yl)-2,3-dihydro-4H-pyrido[3,2-b][1,4]oxazin-4-yl)-1,6-naphthyridin-7-yl)methyl)-4-fluoro-3,4-dihydro-2H-benzo[b][1,4]oxathiepine-7-carboxamide 5,5-dioxide] | 102 nM |  |
| [2H]C([2H])([2H])Oc1ccc(-c2ccc3cnc(CNC(=O)c4cc(F)c5c(c4)S(=O)(=O)[C@@H](F)CCO5)cc3n2)nc1C1CC1 [Compound 257] | 108 nM |  |
| O=C(NCc1cc2nc(-c3cncc(N4CCCC4)n3)ccc2cn1)c1cc(F)c2c(c1)S(=O)(=O)[C@@H](F)CCO2 [Compound 220] | 148 nM |  |
| O=C(NCc1cc2cc(-c3cccc(C4CC4)n3)ccc2cn1)c1cc(F)c2c(c1)S(=O)(=O)[C@@H](F)CCO2 [Compound 291] | 206 nM |  |
| COc1nc(C(F)F)ccc1-c1ccc2cnc(CNC(=O)c3cc(C(F)F)c4c(c3)S(=O)(=O)[C@@H](F)COC4)cc2n1 [Compound 234] | 83 nM |  |
| O=C(NCc1cc2nc(N3CCOc4ccc(N5CCC5)nc43)ccc2cn1)c1cc(F)c2c(c1)S(=O)(=O)[C@@H](F)CCO2 [Compound 264] | 177 nM |  |
| COCCOc1ccc2c(c1)OCCN2c1ccc2cnc(CNC(=O)c3cc(F)c4c(c3)S(=O)(=O)[C@@H](F)CCO4)cc2n1 [Compound 93] | 42.3 nM |  |
| C#Cc1cc(C(=O)NCc2cc3nc(-c4cccc(N5C[C@@H](C)O[C@@H](C)C5)n4)ccc3cn2)cc2c1OCC[C@H](F)S2(=O)=O [Compound 314] | 4130 nM |  |
| O=C(NCc1cc2cc(-c3cccc(C(F)F)n3)ccc2cn1)c1cc(F)c2c(c1)S(=O)(=O)[C@@H](F)COC2 [Compound 232] | 140 nM |  |
| C[C@@H]1CN(c2cccc(/C=C/c3ccnc(CNC(=O)c4cc(Cl)c5c(c4)S(=O)(=O)[C@@H](F)COC5)c3)n2)C[C@H](C)O1 [Compound 107] | 99 nM |  |
| C[C@@H]1CCCN1c1cnc2c(c1)OCCN2c1ccc2cnc(CNC(=O)c3cc(F)c4c(c3)S(=O)(=O)[C@@H](F)CCO4)cc2n1 [Compound 243] | 111 nM |  |
| CN(C)c1cnc2c(c1)OCCN2c1ccc2cnc(CNC(=O)c3cc(F)c4c(c3)S(=O)(=O)[C@@H](F)CCO4)cc2n1 [Compound 106] | 35.3 nM |  |
| CCOc1cccc(-c2ccc3cnc(CNC(=O)c4cc(Cl)c5c(c4)S(=O)(=O)[C@@H](F)CCO5)cc3n2)n1 [Compound 359] |  | IC50 [3]: 18.8 nM; Ratio (MDA-MMTV IC50 (μM) divided by A549-MMTV IC50 (μM)) [3]: 29.73 |
| [2H]C([2H])([2H])Oc1ccc(-c2ccc3cnc(CNC(=O)c4cc(Br)c5c(c4)S(=O)(=O)[C@@H](F)COC5)cc3n2)nc1[C@H]1CC1(F)F [Compound 493] |  | IC50 [3]: 19.4 nM; Ratio (MDA-MMTV IC50 (μM) divided by A549-MMTV IC50 (μM)) [3]: 49.65 |
